Measurements as given in patent publication US20230183237A1, “COMPETITIVE AND NONCOMPETITIVE INHIBITORS OF THE MUSCARINIC ACETYLCHOLINE RECEPTOR M5” (Vanderbilt University, priority 2020, published 2023).
Where two headings read alike, the source gives them in different places.

Target: T1, hM5 (Homo sapiens, UniProt P08912)
T1 construct: expressed in transfected cells
T1 sequence (P08912 1-532): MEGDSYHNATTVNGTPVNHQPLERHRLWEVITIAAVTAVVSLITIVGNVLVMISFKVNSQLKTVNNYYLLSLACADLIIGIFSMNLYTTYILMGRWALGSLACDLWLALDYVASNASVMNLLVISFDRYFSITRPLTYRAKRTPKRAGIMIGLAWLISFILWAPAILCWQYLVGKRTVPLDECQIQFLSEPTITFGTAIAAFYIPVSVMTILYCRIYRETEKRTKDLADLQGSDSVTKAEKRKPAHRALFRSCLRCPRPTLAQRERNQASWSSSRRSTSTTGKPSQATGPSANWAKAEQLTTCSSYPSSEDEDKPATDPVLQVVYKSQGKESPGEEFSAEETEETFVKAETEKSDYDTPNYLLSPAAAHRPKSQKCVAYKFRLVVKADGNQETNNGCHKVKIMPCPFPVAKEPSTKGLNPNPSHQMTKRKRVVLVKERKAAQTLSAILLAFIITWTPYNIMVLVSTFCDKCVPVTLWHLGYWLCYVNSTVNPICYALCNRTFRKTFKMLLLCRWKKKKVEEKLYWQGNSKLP
Experiment: Calcium mobilization concentration-response (IC50 vs EC80 acetylcholine), CHO hM5
Format: cell-based
Conditions: CELL LINE hM5, read-out: IC50
In short: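 CHO cells stably expressing hM5, dye-loaded, in HBSS/20 mM HEPES/2.5 mM probenecid, pH 7.4. Compounds were pre-incubated 140 s before an EC80 acetylcholine challenge, with calcium flux read kinetically.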

[1] = calcium mobilization, EC80 acetylcholine addition

Compound | IC50 [1] | IC50 (vs EC80 acetylcholine)
Cc1ccncc1C1CCN(S(=O)(=O)c2cnn(C)c2Cl)CC1 [Compound 383, 3-(1-((5-chloro-1-methyl-1H-pyrazol-4-yl)sulfonyl)piperidin-4-yl)-4-methylpyridine] | 1640 nM | –
Cc1cc2ncccc2cc1C1CCN(S(=O)(=O)c2cnn(C)c2C)CC1 [Compound 418, 6(1-((1,5-dimethyl-1H-pyrazol-4-yl)sulfonyl)piperidin-4-yl)-7-methylquinoline] | – | 32 nM
Cc1ccncc1C1CCN(S(=O)(=O)c2cnn3c2CCC3)CC1 [Compound 388, 3-((4-(4-methylpyridin-3-yl)piperidin-1-yl)sulfonyl)-5,6-dihydro-4H-pyrrolo[1,2-b]pyrazole] | 822 nM | –
Cc1cc2ncnn2cc1C1(F)CCN(S(=O)(=O)c2cnn(C)c2C(F)F)CC1 [Compound 422, 6-(1-((5-(difluoromethyl)-1-methyl-1H-pyrazol-4-yl)sulfonyl)-4-fluoropiperidin-4-yl)-7-methyl-[1,2,4]triazolo[1,5-a]pyridine] | – | 86 nM
Cc1cc2ncnn2cc1C1=CCN(S(=O)(=O)c2cc3c(cc2C)OCC3C)CC1 (stereo not drawn) [Compound 84, 6-(1-((3,6-dimethyl-2,3-dihydrobenzofuran-5-yl)sulfonyl)-1,2,3,6-tetrahydropyridin-4-yl)-7-methyl-[1,2,4]triazolo[1,5-a]pyridine] | 185 nM | –
COc1ccc(S(=O)(=O)N2CCC(c3nn4ncnc4cc3C)CC2)c(C)c1 [Compound 186, 6-(1-((4-methoxy-2-methylphenyl)sulfonyl)piperidin-4-yl)-7-methyl-[1,2,4]triazolo[1,5-b]pyridazine] | > 10000 nM | –
Cc1cc2nccn2nc1C1CCN(S(=O)(=O)c2cccnc2)CC1 [Compound 53, 7-methyl-6-(1-(pyridin-3-ylsulfonyl)piperidin-4-yl)imidazo[1,2-b]pyridazine] | > 10000 nM | –
O=S(=O)(c1ccc2c(c1)CCO2)N1CCC(c2nccs2)CC1 [Compound 98, 2-(1-((2,3-dihydrobenzofuran-5-yl)sulfonyl)piperidin-4-yl)thiazole] | > 10000 nM | –
O=S(=O)(c1ccc2ncccc2c1)N1CCC(c2cc3cc[nH]c3cn2)CC1 [Compound 26, 6-((4-(1H-pyrrolo[2,3-c]pyridin-5-yl)piperidin-1-yl)sulfonyl)quinoline] | > 10000 nM | –
Cc1ncc(S(=O)(=O)N2CCC(c3cn4ccnc4cc3C)CC2)o1 [Compound 582, 2-methyl-5-((4-(7-methylimidazo[1,2-a]pyridin-6-yl)piperidin-1-yl)sulfonyl)oxazole] | – | 831 nM
Cc1cc2ncccc2cc1C1CCN(S(=O)(=O)c2c(Cl)nc3sccn23)CC1 [Compound 451, 6-chloro-5-((4-(7-methylquinolin-6-yl)piperidin-1-yl)sulfonyl)imidazo[2,1-b]thiazole] | – | 619 nM
Cc1cc2ncnn2nc1C1=CCN(S(=O)(=O)c2ccc3c(c2)N(C)CCO3)CC1 [Compound 170, 4-methyl-6-((4-(7-methyl-[1,2,4]triazolo[1,5-b]pyridazin-6-yl)-3,6-dihydropyridin-1(2H)-yl)sulfonyl)-3,4-dihydro-H-benzo[b][1,4]oxazine] | > 10000 nM | –
Cc1c(S(=O)(=O)N2CC=C(c3cn4ncnc4c(F)c3Cl)CC2)cnn1C [Compound 381, 7-chloro-6-(1-((1,5-dimethyl-1H-pyrazol-4-yl)sulfonyl)-1,2,3,6-tetrahydropyridin-4-yl)-8-fluoro-[1,2,4]triazolo[1,5-a]pyridine] | 13 nM | –
Cc1cc2nccn2nc1N1CCN(S(=O)(=O)c2ccc3c(c2)CCO3)CC1 [Compound 36, 6-(4-((2,3-Dihydrobenzofuran-5-yl)sulfonyl)piperazin-1-yl)-7-methylimidazo[1,2-b]pyridazine] | 4000 nM | –
O=S(=O)(c1ccc2c(c1)CCO2)N1CCC(c2nc3cc(F)ccc3[nH]2)CC1 [Compound 5, 2-(1-((2,3-dihydrobenzofuran-5-yl)sulfonyl)piperidin-4-yl)-5-fluoro-in-benzo[d]imidazole] | > 10000 nM | –
Cc1nc2n(c1C1CCN(S(=O)(=O)c3cnn(C)c3C)CC1)CCCC2 [Compound 464, 3-(1-((1,5-dimethyl-1H-pyrazol-4-yl)sulfonyl)piperidin-4-yl)-2-methyl-5,6,7,8-tetrahydroimidazo[1,2-a]pyridine] | – | 275 nM
O=S(=O)(c1ccc2c(c1)CCO2)N1CC=C(c2cn3ncnc3cc2Cl)CC1 [Compound 139, 7-chloro-6-(1-((2,3-dihydrobenzofuran-5-yl)sulfonyl)-1,2,3,6-tetrahydropyridin-4-yl)-[1,2,4]triazolo[1,5-a]pyridine] | 149 nM | –
Cc1c(C2CCN(S(=O)(=O)c3cnc4n3CCCC4)CC2)cn2ncnc2c1F [Compound 349, 8-fluoro-7-methyl-6-(1-((5,6,7,8-tetrahydroimidazo[1,2-a]pyridin-3-yl)sulfonyl)piperidin-4-yl)-[1,2,4]triazolo[1,5-a]pyridine] | 17 nM | –

The remaining lines, values ahead:

IC50 [1] | IC50 (vs EC80 acetylcholine) | Compound
150 nM | – | Cc1c(S(=O)(=O)N2CCC(c3cn4ncnc4cc3C(F)(F)F)CC2)cnn1C [Compound 273, 6-(1-((1,5-dimethyl-1H-pyrazol-4-yl)sulfonyl)piperidin-4-yl)-7-(trifluoromethyl)-[1,2,4]triazolo[1,5-a]pyridine]
– | 12 nM | COc1c(S(=O)(=O)N2CCC(c3cn4ncnc4cc3C)CC2)cnn1C [Compound 573, 6-(1-((5-methoxy-1-methyl-1H-pyrazol-4-yl)sulfonyl)piperidin-4-yl)-7-methyl-[1,2,4]triazoto[1,5-a]pyridine]
– | 204 nM | Cn1ncc(S(=O)(=O)N2CCC(c3cn4ncnc4cc3C(F)(F)F)CC2)c1CC#N [Compound 410, 2-(1-methyl-4-((4-(7-(trifluoromethyl)-[1,2,4]triazolo[1,5-a]pyridin-6-yl)piperidin-1-yl)sulfonyl)-1H-pyrazol-5-yl)acetonitrile]
– | 114 nM | [2H]C([2H])([2H])Oc1c(S(=O)(=O)N2CCC(c3cn4ncnc4cc3C(F)(F)F)CC2)cnn1C [Compound 615, 6-(1-((5-(methoxy-d3)-1-methyl-1H-pyrazol-4-yl)sulfonyl)piperidin-4-yl)-7-(trifluoromethyl)-[1,2,4]triazoto[1,5-a]pyridine]
> 10000 nM | – | Cc1cc(C2CCN(S(=O)(=O)c3cnn(C)c3C)CC2)cn2ncnc12 [Compound 199, 6-(1-((1,5-dimethyl-1H-pyrazol-4-yl)sulfonyl)piperidin-4-yl)-8-methyl-[1,2,4]triazolo[1,5-a]pyridine]
– | > 10000 nM | Cn1cnnc1S(=O)(=O)N1CCC(c2cn3ncnc3cc2C(F)F)CC1 [Compound 517, 7-(difluoromethyl)-6-(1-((4-methyl-4H-1,2,4-triazol-3-yl)sulfonyl)piperidin-4-yl)-[1,2,4]triazolo[1,5-a]pyridine]
– | 804 nM | Cc1cc2ncnn2cc1C1CCN(S(=O)(=O)c2cnn(C)c2-c2scnc2C)CC1 [Compound 598, 4-Methyl-5-(1-methyl-4-((4-(7-methyl-[1,2,4]triazolo[1,5-a]pyridin-6-yl)piperidin-1-yl)sulfonyl)-1H-pyrazo1-5-yl)thiazole]
804 nM | – | COc1cc2ncnn2cc1C1CCN(S(=O)(=O)c2cc3c(cc2C)OCC3C)CC1 (stereo not drawn) [Compound 88, 6-(1-((3,6-dimethyl-2,3-dihydrobenzofuran-5-yl)sulfonyl)piperidin-4-yl)-7-methoxy-[1,2,4]triazolo[1,5-a]pyridine]
– | > 10000 nM | Cn1ncc(S(=O)(=O)N2CCC(c3cn4ncnc4cc3F)CC2)c1CN [Compound 530, (4-((4-(7-fluoro-[1,2,4]triazolo[1,5-a]pyridin-6-yl)piperidin-1-yl)sulfonyl)-1-methyl-1H-pyrazol-5-yl)methanamine]
– | 246 nM | Cc1ncc(S(=O)(=O)N2CCC(c3cn4ncnc4cc3CF)CC2)o1 [Compound 623, 5-((4-(7-(fluoromethyl)-[1,2,4]triazolo[1,5-a]pyridin-6-yl)piperidin-1-yl)sulfonyl)-2-methyloxazole]
2400 nM | – | Cc1nn(C)cc1S(=O)(=O)N1CCC(c2cn3ncnc3cc2C(F)(F)F)CC1 [Compound 113, 6-(1-((1,3-dimethyl-1H-pyrazol-4-yl)sulfonyl)piperidin-4-yl)-7-(trifluoromethyl)-[1,2,4]triazolo[1,5-a]pyridine]
> 10000 nM | – | Cc1cc2ncnn2cc1C1(O)CCN(S(=O)(=O)c2cnn(C)c2C)CC1 [Compound 308, 1-((1,5-Dimethyl-1H-pyrazol-4-yl)sulfonyl)-4-(7-methyl-[1,2,4]triazolo[1,5-a]pyridin-6-yl)piperidin-4-ol]
– | 172 nM | O=S(=O)(c1cnc(Cl)s1)N1CCC(c2cn3ncnc3cc2Cl)CC1 [Compound 532, 2-chloro-5-((4-(7-chloro-[1,2,4]triazoto[1,5-a]pyridin-6-yl)piperidin-1-yl)sulfonyl)thiazole]
103 nM | – | Cc1cc2ncnn2cc1[C@@H]1CCN(S(=O)(=O)c2cnn(C)c2Cl)C[C@H]1O (racemic) [Compound 282, (rac)-trans-1-((5-Chloro-1-methyl-1H-pyrazol-4-yl)sulfonyl-4-(7-methyl-[1,2,4]triazolo[1,5-a]pyridin-6-yl)piperidin-3-ol]
113 nM | – | Cc1c(S(=O)(=O)N2CCC(c3cn4ncnc4cc3C(F)(F)F)CC2)c(Cl)nn1C [Compound 341, 6-(1-((3-chloro-1,5-dimethyl-1H-pyrazol-4-yl)sulfonyl)piperidin-4-yl)-7-(trifluoromethyl)-[1,2,4]triazolo[1,5-a]pyridine]
